# Data from patent US20140357577A1, “HIV Membrane Fusion Inhibitors” (priority 2011, published 2014).
# Starred links: 1 amine or outer side, 2 acyl side, 3 side chain; linkers in the order of their positions; H or OH if unused. Non-standard residues stand in square brackets, D forms with d. No end group written: not given here. *: point of attachment. cholesteryl‑oxycarbonylmethyl = CC(C)CCC[C@@H](C)[C@H]1CC[C@H]2[C@@H]3CC=C4C[C@@H](OC(=O)C*)CC[C@]4(C)[C@H]3CC[C@]12C; C(Bzl) = O=C([C@H](CSCc1ccccc1)N[*:1])[*:2]; tBuAla = CC(C)(C)C[C@H](N)C(=O)O; Suc = O=C(CCC(=O)[*:2])[*:1]; Isovaleryl = CC(C)CC(=O)*; hCys = N[C@@H](CCS)C(=O)O; Nva = CCC[C@H](N)C(=O)O; Tba = not defined here
# Key:
# [1] = test system: HIV mutant virus strain HXB2D with mutation Q40H in the gp41 gene; assay: Standard AVE, HXB2D site directed mutant Q40H; format: cell-based, HIV-1; details: fold change vs wild type strain HXB2D
# In short: (§1)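 MT4-LTR-EGFP cells infected with HIV-1 IIIB, HXB2D or HXB2D gp41 mutants V38A/Q40H alongside serial 4-fold compound dilutions, 3 days at 37° C. EGFP read by laser-scanning microscopy; EC50 by linear interpolation against log concentration. Mutant results given as fold change in EC50 versus wild-type HXB2D.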
# HIV-IIIB + 50% HS = assay: Standard AVE (50% Human Serum), HIV-1 replication assay in MT4-LTR-EGFP cells; format: cell-based; details: fold change vs EC50 in the assay without human serum
# In short: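 MT4-LTR-EGFP cells infected with HIV-1 alongside 4-fold serial compound dilutions in 50% human serum, 3 days at 37 °C. EGFP read by laser-scanning microscopy; EC50 by linear interpolation against log concentration, reported as fold change versus EC50 without serum.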
# [2] = test system: HIV wild type virus strain IIIB; assay: Standard Anti-Viral-Experiment (AVE), HIV-1 replication assay in MT4-LTR-EGFP cells, wild type IIIB; format: cell-based; details: 3 days, EGFP signal
# In short: as §1
# [3] = test system: HIV mutant virus strain HXB2D with mutation V38A in the gp41 gene; assay: Standard AVE, HXB2D site directed mutant V38A; format: cell-based, HIV-1; details: fold change vs wild type strain HXB2D
# Source text: • Standard Anti-Viral-Experiment “AVE” (wild type HIV strain IIIB+HIV strain HXB2D side directed mutants V38A and Q40H)
# The HIV-1 replication assay measures virus replication (HIV wild type virus strain 111B or HXB2D, or a HIV mutant virus strain HXB2D with mutation V38A or Q40H in the gp41 gene) as an induction of enhanced green fluorescent protein (EGFP) expression. The indicator MT4-LTR-EGFP cells contain an EGFP gene under the control of the HIV-1 LTR promoter sequence. Successful HIV-1 infection results in viral Tat protein expression and subsequent induction of EGFP expression. Compounds/peptides inhibiting HIV-1 infection are expected to reduce EGFP expression as compared to the untreated HIV-infected control.
# Serial 4-fold dilutions of test compounds/peptides were mixed with HIV-1 (IIIB, HXB2D, or a HXB2D mutant virus (V38A or Q40H)) and MT4-LTR-EGFP cells and incubated at 37° C. After 3 days, the wells were examined for EGFP expression using an argon laser-scanning microscope. The effective compound/peptide concentration inhibiting 50% of the virus-induced EGFP signal (EC50) was determined by linear interpolation of the EGFP signal vs. logarithm of the compound concentration; (T20, C34 and Sifuvirtide were added as reference compounds). For the V38A and Q40H mutant viruses, results were reported as a fold change in EC50, as compared with a drug-susceptible wild type strain HXB2D, which forms the backbone of the mutant virus. • Standard AVE (50% Human Serum)
# [4] = target: gp41 of HIV-1 wild type strain IIIB (HIV-1 strain IIIB)
# [5] = target: gp41 of HIV-1 strain HXB2D with mutation Q40H (HIV-1 strain HXB2D) (UniProt P04578)
Molecule,HIV-HXB2D Q40H mutant (fold change in EC50) [1],HIV-IIIB + 50% HS (Fold change in EC50) (HIV-IIIB + 50% HS),EC50 [2],HIV-HXB2D V38A mutant (fold change in EC50) [3],EC50 of HIV-IIIB replication (EGFP) [4],"fold change in EC50, HIV-IIIB + 50% HS [4]","fold change in EC50, HIV-HXB2D Q40H mutant [5]"
Suc-ACY-Nva-ACIEALIRAAQEQQEKNEAALR-NH2 [Peptide 44],160,1,2 nM,15,–,–,–
C34 (peptide),–,–,–,–,266 nM,0.8 fold,8.8 fold
Suc-ACYLACIEALIRA-Abu-QEQQEKNEAALR-NH2 [Peptide 47],261,2,1 nM,17,–,–,–
Sifuvirtide-PBD (peptide),–,–,–,–,36400 nM,0.8 fold,> 3 fold
Ac-A[hCys]YAA[hCys]IEALIRAAQEQQEKNEAALR-NH2 (cysteine pairing not given here) [Peptide 77],304,3,6 nM,39,–,–,–
Suc-CYLACIEELIRKAGEQQEKNEAAL-Tba-NH2 (Suc-CYLACIEELIRKAGEQQEKNEAAL-{Tba-NH2}; cysteine pairing not given here; reading uncertain; also: printed as Suc-CYLACIEELIRKAGEQQEKNEAAL-Tba-NH2) [Peptide 25],352,3,0.6 nM,31,–,–,–
"Suc-Hcy-YLA-Hcy-IEALIRAAREQQEKNEALLR-NH2 (Suc-[hCys]YLA[hCys]IEALIRAAREQQEKNEALLR-NH2; also: cyclised, bridge not given here) [Peptide 28]",25,4,0.6 nM,4,–,–,–
Suc-ACYLACIEALIRA[Nva]QEQQEKNEAALR-NH2 (cysteine pairing not given here) [Peptide 46],42,2,1 nM,6,–,–,–
Ac-A[hCys]YAA[hCys]IEALIRKAQEQQEKNEAALR-NH2 (cysteine pairing not given here) [Peptide 79],284,2,5 nM,27,–,–,–
Isovaleryl-E-C(Bzl)-YLALIEELIRKAQEQQEKNEAALR-NH2 ({Isovaleryl-Glu-C(Bzl)}-YLALIEELIRKAQEQQEKNEAALR-NH2; SMILES CC[C@H](C)[C@H](NC(=O)[C@H](CC(C)C)NC(=O)[C@H](C)NC(=O)[C@H](CC(C)C)NC(=O)[C@H](Cc1ccc(O)cc1)NC(=O)[C@H](CSCc1ccccc1)NC(=O)[C@H](CCC(=O)O)NC(=O)CC(C)C)C(=O)N[C@@H](CCC(=O)O)C(=O)N[C@@H](CCC(=O)O)C(=O)N[C@@H](CC(C)C)C(=O)N[C@H](C(=O)N[C@@H](CCCNC(=N)N)C(=O)N[C@@H](CCCCN)C(=O)N[C@@H](C)C(=O)N[C@@H](CCC(N)=O)C(=O)N[C@@H](CCC(=O)O)C(=O)N[C@@H](CCC(N)=O)C(=O)N[C@@H](CCC(N)=O)C(=O)N[C@@H](CCC(=O)O)C(=O)N[C@@H](CCCCN)C(=O)N[C@@H](CC(N)=O)C(=O)N[C@@H](CCC(=O)O)C(=O)N[C@@H](C)C(=O)N[C@@H](C)C(=O)N[C@@H](CC(C)C)C(=O)N[C@@H](CCCNC(=N)N)C(N)=O)[C@@H](C)CC) [Peptide 18],53,3,1 nM,3,–,–,–
Ac-A[hCys]YAA[hCys]IEALIRAAQEQQEKNEAALR-NH2 (cysteine pairing not given here) [Peptide 78],355,3,5 nM,61,–,–,–
Ac-ACY-Cha-ACIEALIRAAQEQQEKNEAALR-NH2 [Peptide 59],44,3,3 nM,18,–,–,–
Suc-ACYLAC)EELIRKAQEQQEKNEAALR-NH2 [Peptide 31],238,0.4,1 nM,14,–,–,–
"Suc-ANYLALIEAL-Tba-RAAQEQQEKNEAALR-NH2 (reading uncertain; also: chains 1 and 2 are one peptide joined through Tba residue, printed as Suc-ANYLALIEAL-Tba-RAAQEQQEKNEAALR-NH2) [Peptide 11]",368,0.8,1 nM,26,–,–,–
T20 (peptide),–,–,–,–,17 nM,3.9 fold,49.7 fold
Suc-CYLACIEELIRKAQEQQEKNEAAL-Tba-NH2 [27] (Suc-CYLACIEELIRKAQEQQEKNEAAL[tBuAla]-NH2; cysteine pairing not given here) [Peptide 27],307,0.7,3 nM,28,–,–,–
Ac-ACYAACIEALIRAAQEQQEKNEAALRGSGC(cholesteryl-oxycarbonylmethyl)-NH2 [81] (Ac-ACYAACIEALIRAAQEQQEKNEAALRGSGC(cholesteryl‑oxycarbonylmethyl)-NH2; cysteine pairing not given here) [Peptide 81],24,4,0.3 nM,4,–,–,–
Sifuvirtide (peptide),–,–,–,–,2 nM,1 fold,2 fold
Ac-A[hCys]YAA[hCys]IEALIRKAQEQQEKNEAALR-NH2 (cysteine pairing not given here) [Peptide 80],375,2,2 nM,40,–,–,–
Ac-NNYTSLIHSLIEESQNQQEKNEQELL-NH2 [C34-PBD*],–,–,–,–,> 49200 nM,–,–
